Legend:
[1] = system: Influenza A virus; assay: Anti-viral activity against Influenza A virus H7N1 pseudotype infected in human A549 cells assessed as inhibition of viral entry incubated for 48 hrs by Neolite Reporter Gene Assay; format: functional, organism-based; conditions: H7N1, A549, 48 h
[2] = Cytotoxicity against human A549 cells incubated for 48 hrs by CellTiter-Glo Luminescent Cell Viability Assay; format: toxicity, cell-based
[3] = Metabolic stability in human liver microsomes assessed as compound remaining at 2 to 10 uM measured after 60 mins in presence of NADPH by LC-MS/MS analysis; format: ADME, Microsome; conditions: dose 2-10 µM, read-out: Stability
[4] = Metabolic stability in BALB/c mouse liver microsomes assessed as compound remaining at 2 to 10 uM measured after 60 mins in presence of NADPH by LC-MS/MS analysis; format: ADME, Microsome; conditions: dose 2-10 µM, read-out: Stability
[5] = Metabolic stability in human liver microsomes assessed as compound remaining at 2 to 10 uM measured after 60 mins in absence of NADPH by LC-MS/MS analysis; format: ADME, Microsome; conditions: dose 2-10 µM, read-out: Stability
[6] = Metabolic stability in BALB/c mouse liver microsomes assessed as compound remaining at 2 to 10 uM measured after 60 mins in absence of NADPH by LC-MS/MS analysis; format: ADME, Microsome; conditions: dose 2-10 µM, read-out: Stability
[7] = Metabolic stability in human liver microsomes assessed as compound remaining at 2 to 10 uM measured after 60 mins in presence of furafylline/NADPH by LC-MS/MS analysis; format: ADME, Microsome; conditions: with furafylline, dose 2-10 µM, read-out: Stability
[8] = Metabolic stability in human liver microsomes assessed as compound remaining at 2 to 10 uM measured after 60 mins in presence of sulfaphenazole/NADPH by LC-MS/MS analysis; format: ADME, Microsome; conditions: with sulfaphenazole, dose 2-10 µM, read-out: Stability
[9] = Metabolic stability in human liver microsomes assessed as compound remaining at 2 to 10 uM measured after 60 mins in presence of quinidine/NADPH by LC-MS/MS analysis; format: ADME, Microsome; conditions: with quinidine, dose 2-10 µM, read-out: Stability
[10] = Metabolic stability in human liver microsomes assessed as compound remaining at 2 to 10 uM measured after 60 mins in presence of ketoconazole/NADPH by LC-MS/MS analysis; format: ADME, Microsome; conditions: with ketoconazole, dose 2-10 µM, read-out: Stability
[11] = Metabolic stability in BALB/c mouse liver microsomes assessed as compound remaining at 2 to 10 uM measured after 60 mins in presence of furafylline/NADPH by LC-MS/MS analysis; format: ADME, Microsome; conditions: with furafylline, dose 2-10 µM, read-out: Stability
[12] = Metabolic stability in BALB/c mouse liver microsomes assessed as compound remaining at 2 to 10 uM measured after 60 mins in presence of sulfaphenazole/NADPH by LC-MS/MS analysis; format: ADME, Microsome; conditions: with sulfaphenazole, dose 2-10 µM, read-out: Stability
[13] = Metabolic stability in BALB/c mouse liver microsomes assessed as compound remaining at 2 to 10 uM measured after 60 mins in presence of quinidine/NADPH by LC-MS/MS analysis; format: ADME, Microsome; conditions: with quinidine, dose 2-10 µM, read-out: Stability
[14] = Metabolic stability in BALB/c mouse liver microsomes assessed as compound remaining at 2 to 10 uM measured after 60 mins in presence of ketoconazole/NADPH by LC-MS/MS analysis; format: ADME, Microsome; conditions: with ketoconazole, dose 2-10 µM, read-out: Stability
[15] = Metabolic stability in human plasma at 2 uM measured after 60 mins by LC-MS/MS analysis; format: ADME, cell-free; conditions: 1 h
[16] = Metabolic stability in mouse plasma at 2 uM measured after 60 mins by LC-MS/MS analysis; format: ADME, cell-free; conditions: 1 h

COc1ccc(-c2nc3ncccn3c2NC2CCCCC2)cc1
EC50 [1]: 80 nM
CC50 at 48 h [2]: > 1250 µM
remaining at 1 h, up to 10 µM [3]: 21.1%
remaining at 1 h, up to 10 µM [4]: 2.3%
remaining at 1 h, up to 10 µM [5]: 113%
remaining at 1 h, up to 10 µM [6]: 113%
remaining at 1 h, up to 10 µM [7]: 71%
remaining at 1 h, up to 10 µM [8]: 32%
remaining at 1 h, up to 10 µM [9]: 36.5%
remaining at 1 h, up to 10 µM [10]: 65.1%
remaining at 1 h, up to 10 µM [11]: 12.2%
remaining at 1 h, up to 10 µM [12]: 4.5%
remaining at 1 h, up to 10 µM [13]: 4.2%
remaining at 1 h, up to 10 µM [14]: 39.4%
Stability [15]: Stable
Stability [16]: Stable

Fc1ccc(-c2nc3ncccn3c2NC2CCCCC2)cc1
EC50 [1]: 40 nM
CC50 at 48 h [2]: > 100 µM

CCOc1ccc(-c2nc3nc(C)cc(C)n3c2NC2CCCCC2)cc1OC
EC50 [1]: 5330 nM
CC50 at 48 h [2]: > 25 µM

Cc1cc(C)n2c(NC34CC5CC(C)(CC(C)(C5)C3)C4)c(-c3ccccc3)nc2n1
EC50 [1]: 13000 nM
CC50 at 48 h [2]: 32 µM

COCOc1ccc(-c2nc3ncc(Cl)cn3c2NC2CCCCCC2)cc1
EC50 [1]: 740 nM
CC50 at 48 h [2]: > 100 µM
remaining at 1 h, up to 10 µM [3]: 13.8%
remaining at 1 h, up to 10 µM [4]: 2.7%
remaining at 1 h, up to 10 µM [5]: 111%
remaining at 1 h, up to 10 µM [6]: 111%
Stability [15]: Stable
Stability [16]: Stable

COCOc1ccc(-c2nc3ncccn3c2NC2CCCCCC2)cc1
EC50 [1]: 160 nM
CC50 at 48 h [2]: 52 µM

Fc1cccc(-c2nc3ncccn3c2NC2CCCCC2)c1
EC50 [1]: 390 nM
CC50 at 48 h [2]: > 25 µM

Cc1cc(C)n2c(NC3CCCCC3)c(-c3ccc(Cl)s3)nc2n1
EC50 [1]: 2260 nM
CC50 at 48 h [2]: 14.8 µM

COc1ccc(COc2ccc(-c3nc4ncccn4c3NC3CCCCC3)c(F)c2)cc1
EC50 [1]: 2100 nM
CC50 at 48 h [2]: 39 µM

Cc1cc(C)n2c(NC3CCCCC3)c(-c3ccncc3)nc2n1
EC50 [1]: 890 nM
CC50 at 48 h [2]: > 25 µM

COCOc1ccc(-c2nc3ncccn3c2NC2CCCCC2)c(F)c1
EC50 [1]: 80 nM
CC50 at 48 h [2]: > 100 µM
remaining at 1 h, up to 10 µM [3]: 62.3%
remaining at 1 h, up to 10 µM [4]: 9.2%
remaining at 1 h, up to 10 µM [5]: 103%
remaining at 1 h, up to 10 µM [6]: 107%
Stability [15]: Stable
Stability [16]: Stable

Fc1ccc(-c2nc3ncccn3c2NC2CCCCC2)cc1N1CCOCC1
EC50 [1]: 680 nM
CC50 at 48 h [2]: > 25 µM

Fc1cc(-c2nc3ncc(Cl)cn3c2NC2CCCCC2)ccc1N1CCOCC1
EC50 [1]: 1610 nM
CC50 at 48 h [2]: > 100 µM

Fc1ccc(-c2nc3ncc(Cl)cn3c2NC2CCCC2)cc1F
EC50 [1]: 8300 nM
CC50 at 48 h [2]: 25 µM

Fc1ccc(-c2nc3ncccn3c2NC2CCCCC2)cc1F
EC50 [1]: 70 nM
CC50 at 48 h [2]: > 100 µM
remaining at 1 h, up to 10 µM [3]: 2.2%
remaining at 1 h, up to 10 µM [4]: 2.7%
remaining at 1 h, up to 10 µM [5]: 113%
remaining at 1 h, up to 10 µM [6]: 114%
remaining at 1 h, up to 10 µM [7]: 19.7%
remaining at 1 h, up to 10 µM [8]: 7.2%
remaining at 1 h, up to 10 µM [9]: 10.9%
remaining at 1 h, up to 10 µM [10]: 48.8%
remaining at 1 h, up to 10 µM [11]: 7.3%
remaining at 1 h, up to 10 µM [12]: 5.5%
remaining at 1 h, up to 10 µM [13]: 5.3%
remaining at 1 h, up to 10 µM [14]: 51.7%
Stability [15]: Stable
Stability [16]: Stable

Cc1cc(C)n2c(NC3CCCCC3)c(-c3ccc(Cl)c(Cl)c3)nc2n1
EC50 [1]: 2510 nM
CC50 at 48 h [2]: 12 µM

COc1cc(OC)cc(-c2nc3ncccn3c2NC2CCCCC2)c1
EC50 [1]: 1890 nM
CC50 at 48 h [2]: 47 µM

CN1CCN(c2ccc(-c3nc4ncc(Cl)cn4c3NC3CCCCC3)cc2F)CC1
EC50 [1]: 1490 nM
CC50 at 48 h [2]: 31 µM

Oc1ccc(-c2nc3ncc(Br)cn3c2NC2CCCCCC2)cc1
EC50 [1]: 3650 nM
CC50 at 48 h [2]: 45 µM

COc1cc(-c2nc3nc(C)cc(C)n3c2NC2CCCCC2)ccc1F
EC50 [1]: 2060 nM
CC50 at 48 h [2]: > 25 µM

COCOc1ccc(-c2nc3ncccn3c2NC2CCCCC2)cc1
EC50 [1]: 90 nM
CC50 at 48 h [2]: > 100 µM
remaining at 1 h, up to 10 µM [3]: 63.7%
remaining at 1 h, up to 10 µM [4]: 2.2%
remaining at 1 h, up to 10 µM [5]: 105%
remaining at 1 h, up to 10 µM [6]: 109%
Stability [15]: Stable
Stability [16]: Stable

COCOc1cc(F)c(-c2nc3ncc(Cl)cn3c2NC2CCCCC2)c(OC)c1
EC50 [1]: 6650 nM
CC50 at 48 h [2]: 48 µM

Cc1cc(C)n2c(NC3CCCCC3)c(-c3nccs3)nc2n1
EC50 [1]: 490 nM
CC50 at 48 h [2]: > 25 µM
remaining at 1 h, up to 10 µM [3]: 19.8%
remaining at 1 h, up to 10 µM [4]: 29.4%
remaining at 1 h, up to 10 µM [5]: 101%
remaining at 1 h, up to 10 µM [6]: 99.9%
Stability [15]: Stable
Stability [16]: Stable

COCOc1ccc(-c2nc3ncc(Br)cn3c2NC2CCCCCC2)cc1
EC50 [1]: 1310 nM
CC50 at 48 h [2]: > 100 µM

From ChEMBL document CHEMBL6134909 (Eur J Med Chem, 2025)
